Experimental data published in patent US20070202577A1, “Method For The Production Of Hyperbranched Polysaccharide Fractions” (priority 2004, published 2007).

Molecular target: T1, α-amylase from porcine pancreas (Sus scrofa, UniProt P00690)
T1 sequence (P00690 16-511): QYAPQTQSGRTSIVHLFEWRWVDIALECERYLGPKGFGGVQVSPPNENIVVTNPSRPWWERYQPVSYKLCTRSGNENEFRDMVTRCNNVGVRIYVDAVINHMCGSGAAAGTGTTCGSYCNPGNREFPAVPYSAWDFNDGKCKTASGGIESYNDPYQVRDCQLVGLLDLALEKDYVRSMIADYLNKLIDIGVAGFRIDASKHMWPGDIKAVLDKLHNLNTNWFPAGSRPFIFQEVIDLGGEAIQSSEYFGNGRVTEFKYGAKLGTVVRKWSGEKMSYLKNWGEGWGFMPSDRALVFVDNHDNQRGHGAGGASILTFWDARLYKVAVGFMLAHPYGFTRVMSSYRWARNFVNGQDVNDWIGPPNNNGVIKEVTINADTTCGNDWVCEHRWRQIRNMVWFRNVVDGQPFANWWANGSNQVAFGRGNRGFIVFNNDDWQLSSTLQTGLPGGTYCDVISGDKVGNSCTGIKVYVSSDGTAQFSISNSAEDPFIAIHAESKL
Protocol: The solution was heated to 37.0° C., and 0.5 I.U./ml α-amylase from porcine pancreas (from Roche; AS, Art. No. 102 814) was added. Samples were taken after 1 and 3 hours, the enzyme was inactivated by heat, and the molecular weight of the remaining high molecular weight fraction was determined by HPGPC.

rate of degradation with α-amylase, compared with the hyperbranched amylopectin fraction from example 7: comparable
initial weight average molecular weight (pH 7.2): 140 200 daltons
weight average molecular weight after hydrolysis for 1 hour (pH 7.2): 54 700 daltons
weight average molecular weight after hydrolysis for 3 hours (pH 7.2): 33 700 daltons
Substance: hydroxyethyl starch [Voluven]
